Earlier results, collected in patent US20170276692A1, “METHODS OF MONITORING FOR ADHERENCE TO BREXPIPRAZOLE (REXULTI®) THERAPY” (Ameritox, LLC, priority 2016, published 2017).

Assays:
[1] = for predominant route of excretion: in vivo
[2] = brexpiprazole is the predominant species

metabolite level in plasma [2] | oral bioavailability (after oral administration) [%] | time to steady state serum concentrations (days of dosing) [days] | mean elimination half-life (in vivo) [h] | fraction of an oral dose excreted as unchanged brexpiprazole in feces ([1]; oral dose, feces) [%] | fraction of an oral dose excreted as unchanged brexpiprazole in urine ([1]; oral dose, urine) | Compound | predominant route of excretion [1]
– | – | – | – | – | – | c1cc(N2CCNCC2)c2ccsc2c1 [SF034318] | excreted predominantly in urine
0-4% | – | – | – | – | – | O=C(O)CCCOc1ccc2ccc(=O)[nH]c2c1 [OPC3952] | excreted predominantly in urine
– | 95 | 10 to 12 | 91 | 14 | Less than 1% | O=c1ccc2ccc(OCCCCN3CCN(c4cccc5sccc45)CC3)cc2[nH]1 [Brexpiprazole] | –
